Test results taken from article PMC6257796, “Effects of Eupatilin and Jaceosidin on Cytochrome P450 Enzyme Activities in Human Liver Microsomes” (Molecules, 2010).

Columns and labels:
Assay type in all cases: in vitro ADME
CYP2A6 = target: T1, CYP2A6 (Homo sapiens, UniProt P11509); assay: Cocktail probe assay in pooled human liver microsomes: coumarin 7-hydroxylation (IC50); conditions: for IC50, coumarin 7-hydroxylation (CYP2A6): pooled human liver microsomes, 2.5 μM coumarin
T1 construct: pooled human liver microsomes (0.25 mg/mL); tissue BD Gentest Co. H161; host or cells: pooled human liver microsomes
T1 sequence (P11509 1-494): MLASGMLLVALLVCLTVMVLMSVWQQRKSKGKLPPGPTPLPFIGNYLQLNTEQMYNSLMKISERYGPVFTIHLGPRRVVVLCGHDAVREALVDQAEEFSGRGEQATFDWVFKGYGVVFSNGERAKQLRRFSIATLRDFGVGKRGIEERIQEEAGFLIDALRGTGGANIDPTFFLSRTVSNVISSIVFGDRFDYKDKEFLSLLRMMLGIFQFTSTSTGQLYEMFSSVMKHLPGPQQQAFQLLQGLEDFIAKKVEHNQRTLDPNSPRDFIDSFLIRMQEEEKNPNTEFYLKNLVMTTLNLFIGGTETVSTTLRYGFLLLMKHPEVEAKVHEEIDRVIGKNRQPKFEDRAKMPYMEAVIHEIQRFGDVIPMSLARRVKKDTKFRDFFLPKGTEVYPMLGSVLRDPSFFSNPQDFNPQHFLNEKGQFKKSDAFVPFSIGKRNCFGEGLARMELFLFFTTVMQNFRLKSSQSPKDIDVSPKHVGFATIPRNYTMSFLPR
Protocol: (§1) The inhibitory potencies (IC50 values) of eupatilin and jaceosidin were determined with CYP assays in the presence and absence of eupatilin and jaceosidin (final concentrations of 0.1−100 μM with acetonitrile concentration of less than 0.5% v/v) using pooled human liver microsomes. Phenacetin O-deethylase, coumarin 7-hydroxylase, amodiaquine N-deethylase, diclofenac hydroxylase, [S]-mephenytoin 4'-hydroxylase, bufuralol 1'-hydroxylase, and midazolam 1'-hydroxylase activities were determined as probe activities for CYP1A2, CYP2A6, CYP2C8, CYP2C9, CYP2C19, CYP2D6, and CYP3A, respectively, using cocktail incubation and tandem mass spectrometry. The incubation mixtures were prepared in a total volume of 200 μL as follows: pooled human liver microsomes (0.25 mg/mL), 1.3 mM NADPH, 3.3 mM MgCl2, 50 mM potassium phosphate buffer (pH 7.4), and a cocktail of probe substrates and various concentrations of eupatilin or jaceosidin (0.1−100 μM). […] After a 3 min preincubation at 37 °C, the reactions were initiated by adding NADPH and incubated for 20 min at 37 °C with shaking in a water bath. After incubation, the reaction was stopped by placing the tubes on ice and adding 100 μL of ice-cold acetonitrile containing internal standards (0.5 μg/mL [^13C,^15N]-acetaminophen for acetaminophen and N-desethylamodiaquine, 0.5 μg/mL [^2H5]-7-hydroxycoumarin for 7-hydroxycoumarin, 2.0 μg/mL [^13C6]-4-hydoxydiclofenac for 4-hydoxydiclofenac, 0.5 μg/mL [^2H3]-4'-hydoxymephenytoin for 4-hydoxymephenytoin and 1'-hydroxymidazolam, and 0.5 μg/mL [^2H7]-1'-hydroxybufuralol for 1'-hydroxybufuralol). The incubation mixtures were then centrifuged at 10,000× g for 5 min. All incubations were performedin triplicate.
(§2) To evaluate the effect of preincubation on inhibitory potency, eupatilin and jaceosidin (0.1−100 μM) were preincubated for 30 min with NADPH, buffer, and microsomes before the addition of the CYP probe substrates. The reaction was started by addition of the cocktail of probe substrates.
(§3) All seven metabolites produced from the cocktail of CYP isoform-specific substrates were simultaneously determined by LC/MS/MS. The system consisted of a tandem quadrupole mass spectrometer (TSQ Quantum Access, ThermoFisher Scientific, CA, USA) coupled with a Nanospace SI-2 LC system. The separation was performed on an Atlantis dC18 column (5 μm, 2.1 mm i.d. × 100 mm, Waters, Waltham, MA, USA) using the gradient elution of a mixture of 5% methanol in 0.1% formic acid (mobile phase A) and 95% methanol in 0.1% formic acid (mobile phase B) at a flow rate of 0.25 mL/min: 10% mobile phase B for 1 min, 10% to 95% mobile phase B for 1 min, 95% mobile phase B for 5 min. The column and autosampler temperatures were 50 °C and 4 °C, respectively. After 1.5 min, the LC eluant was diverted from waste to the mass spectrometer that was fitted with an electrospray ionization (ESI) source and operated in the positive ion mode. The ESI source settings for the ionization of the metabolites were as follows: electrospray voltage, 5.0 kV; vaporizer temperature, 420 °C; capillary temperature 360 °C; sheath gas pressure, 35 psi; auxiliary gas pressure, 10 psi. Quantification was performed by selected reaction monitoring (SRM) of the [M+H]^+ ion and the related product ion for each metabolite. The analytical data were processed using Xcalibur® software (ThermoFisher Scientific).
(§4) The IC50 values (concentration of inhibitor causing 50% inhibition of the original enzyme activity) were calculated using WinNonlin software, a non-linear regression analysis program (Pharsight, Mountain View, CA, USA). The apparent kinetic parameters for inhibitory potential (Ki values) were estimated from the fitted curves using Enzyme Kinetics Ver. 1.3 program (Systat Software Inc., San Jose, CA, USA).

CYP3A = assay: Cocktail probe assay in pooled human liver microsomes: midazolam 1'-hydroxylation (IC50); conditions: for IC50, midazolam 1'-hydroxylation (CYP3A): pooled human liver microsomes, 2.5 μM midazolam
Protocol: as §1, §2, §3, §4

CYP2C19 [1] = target: T2, CYP2C19 (Homo sapiens, UniProt P33261); assay: Cocktail probe assay in pooled human liver microsomes: [S]-mephenytoin 4'-hydroxylation (IC50); conditions: 50 μM [S]-mephenytoin
T2 construct: pooled human liver microsomes (0.25 mg/mL); tissue BD Gentest Co. H161; host or cells: pooled human liver microsomes
Protocol: as §1, §2
(§5) All seven metabolites produced from the cocktail of CYP isoform-specific substrates were simultaneously determined by LC/MS/MS. The system consisted of a tandem quadrupole mass spectrometer (TSQ Quantum Access, ThermoFisher Scientific, CA, USA) coupled with a Nanospace SI-2 LC system. The separation was performed on an Atlantis dC18 column (5 μm, 2.1 mm i.d. × 100 mm, Waters, Waltham, MA, USA) using the gradient elution of a mixture of 5% methanol in 0.1% formic acid (mobile phase A) and 95% methanol in 0.1% formic acid (mobile phase B) at a flow rate of 0.25 mL/min: 10% mobile phase B for 1 min, 10% to 95% mobile phase B for 1 min, 95% mobile phase B for 5 min. […] Quantification was performed by selected reaction monitoring (SRM) of the [M+H]^+ ion and the related product ion for each metabolite. […]

CYP1A2 [2] = target: T3, CYP1A2 (Homo sapiens, UniProt P05177); assay: Kinetic analysis (Ki, inhibition type) in human liver microsomes: phenacetin O-deethylation; conditions: pooled human liver microsomes
T3 construct: pooled human liver microsomes (0.25 mg/mL); tissue BD Gentest Co. H161; host or cells: pooled human liver microsomes
T3 sequence (P05177 1-516): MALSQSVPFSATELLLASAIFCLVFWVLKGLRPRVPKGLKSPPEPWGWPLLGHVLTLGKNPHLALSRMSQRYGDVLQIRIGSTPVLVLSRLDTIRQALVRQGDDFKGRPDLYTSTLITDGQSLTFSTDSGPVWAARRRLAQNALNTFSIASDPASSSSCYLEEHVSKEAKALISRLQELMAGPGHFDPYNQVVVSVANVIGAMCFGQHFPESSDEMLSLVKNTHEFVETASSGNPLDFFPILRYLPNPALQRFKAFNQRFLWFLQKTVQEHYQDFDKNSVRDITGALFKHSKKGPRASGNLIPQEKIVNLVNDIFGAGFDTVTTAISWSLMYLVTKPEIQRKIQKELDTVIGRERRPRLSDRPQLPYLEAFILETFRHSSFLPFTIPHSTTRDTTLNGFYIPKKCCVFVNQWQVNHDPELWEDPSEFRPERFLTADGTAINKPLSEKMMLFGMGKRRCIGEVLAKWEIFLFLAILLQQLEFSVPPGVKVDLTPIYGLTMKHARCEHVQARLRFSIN
Protocol: (§6) The Ki values and inhibition types (competitive, noncompetitive, uncompetitive, or mixed) were determined for eupatilin and jaceosidin using Lineweaver plots, Dixon plots, and secondary reciprocal plots.
(§7) The reactions were initiated by addition of NADPH at 37 °C and stopped after 15 min by placing the incubation tubes on ice and adding 100 μL of ice-cold methanol containing an internal standard. The incubation mixtures were centrifuged at 10,000' g for 5 min, and aliquots (5 μL) of the supernatants were analyzed by liquid chromatography/tandem mass spectrometry (LC/MS/MS).
as §3, §4

CYP2D6 [3] = target: T4, CYP2D6 (Homo sapiens, UniProt P10635); assay: Cocktail probe assay in pooled human liver microsomes: bufuralol 1'-hydroxylation (IC50); conditions: 5.0 μM bufuralol
T4 construct: pooled human liver microsomes (0.25 mg/mL); tissue BD Gentest Co. H161; host or cells: pooled human liver microsomes
Protocol: as §1, §2, §5

CYP2C8 [4] = target: T5, CYP2C8 (Homo sapiens, UniProt P10632); assay: Kinetic analysis (Ki, inhibition type) in human liver microsomes: amodiaquine N-deethylation; conditions: pooled human liver microsomes
T5 construct: pooled human liver microsomes (0.25 mg/mL); tissue BD Gentest Co. H161; host or cells: pooled human liver microsomes
T5 sequence (P10632 1-490): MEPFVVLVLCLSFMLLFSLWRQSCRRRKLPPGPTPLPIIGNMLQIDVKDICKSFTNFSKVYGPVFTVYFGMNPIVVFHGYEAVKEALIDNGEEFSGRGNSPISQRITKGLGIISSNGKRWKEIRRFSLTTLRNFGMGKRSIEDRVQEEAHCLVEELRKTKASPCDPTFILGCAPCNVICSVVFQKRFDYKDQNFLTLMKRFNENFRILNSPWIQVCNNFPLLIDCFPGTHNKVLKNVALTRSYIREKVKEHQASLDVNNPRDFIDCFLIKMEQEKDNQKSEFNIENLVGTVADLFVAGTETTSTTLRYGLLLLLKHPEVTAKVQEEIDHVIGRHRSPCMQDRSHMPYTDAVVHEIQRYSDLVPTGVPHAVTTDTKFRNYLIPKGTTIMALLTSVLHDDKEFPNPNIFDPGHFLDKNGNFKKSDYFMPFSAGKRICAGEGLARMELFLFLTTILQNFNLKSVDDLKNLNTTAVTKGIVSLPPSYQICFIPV
Protocol: as §6, §7, §3, §4

CYP2C9 [5] = target: T6, CYP2C9 (Homo sapiens, UniProt P11712); assay: Kinetic analysis (Ki, inhibition type) in human liver microsomes: diclofenac 4-hydroxylation; conditions: pooled human liver microsomes
T6 construct: pooled human liver microsomes (0.25 mg/mL); tissue BD Gentest Co. H161; host or cells: pooled human liver microsomes
Protocol: as §6, §7, §3, §4

CYP1A2 [6] = target: T3, CYP1A2; assay: Cocktail probe assay in pooled human liver microsomes: phenacetin O-deethylation (IC50); conditions: 50 μM phenacetin
Protocol: as §1, §2, §5

CYP2C9 [7] = target: T6, CYP2C9; assay: Cocktail probe assay in pooled human liver microsomes: diclofenac 4-hydroxylation (IC50); conditions: 10 μM diclofenac
Protocol: as §1, §2, §5

CYP2C19 [8] = target: T2, CYP2C19; assay: Kinetic analysis (Ki, inhibition type) in human liver microsomes: [S]-mephenytoin 4'-hydroxylation; conditions: pooled human liver microsomes; for Inhibition type, S-mephenytoin 4'-hydroxylation (CYP2C19): Lineweaver, Dixon and secondary reciprocal plots
Protocol: as §6, §7, §3, §4

CYP2D6 [9] = target: T4, CYP2D6; assay: Kinetic analysis (Ki, inhibition type) in human liver microsomes: bufuralol 1'-hydroxylation; conditions: pooled human liver microsomes
Protocol: as §6, §7, §3, §4

CYP2C8 [10] = target: T5, CYP2C8; assay: Cocktail probe assay in pooled human liver microsomes: amodiaquine N-deethylation (IC50); conditions: 2.0 μM amodiaquine, no preincubation
Protocol: as §1, with “After incubation, the reaction was stopped by placing the tubes on ice and adding 100 μL of ice-cold acetonitrile containing internal standards (0.5 μg/mL [^13C,^15N]-acetaminophen for acetaminophen and N-desethylamodiaquine, 0.5 μg/mL [^2H5]-7-hydroxycoumarin for 7-hydroxycoumarin, 2.0 μg/mL [^13C6]-4-hydoxydiclofenac for 4-hydoxydiclofenac, 0.5 μg/mL [^2H3]-4'-hydoxymephenytoin for 4-hydoxymephenytoin and 1'-hydroxymidazolam, and 0.5 μg/mL [^2H7]-1'-hydroxybufuralol for 1'-hydroxybufuralol). The incubation mixtures were then centrifuged at 10,000× g for 5 min. All incubations were performedin triplicate.” left out
All seven metabolites produced from the cocktail of CYP isoform-specific substrates were simultaneously determined by LC/MS/MS. […] Quantification was performed by selected reaction monitoring (SRM) of the [M+H]^+ ion and the related product ion for each metabolite. […]

[11] = with 30 min preincubation in presence of NADPH
[12] = Lineweaver, Dixon and secondary reciprocal plots

T4 sequence (P10635 whole entry): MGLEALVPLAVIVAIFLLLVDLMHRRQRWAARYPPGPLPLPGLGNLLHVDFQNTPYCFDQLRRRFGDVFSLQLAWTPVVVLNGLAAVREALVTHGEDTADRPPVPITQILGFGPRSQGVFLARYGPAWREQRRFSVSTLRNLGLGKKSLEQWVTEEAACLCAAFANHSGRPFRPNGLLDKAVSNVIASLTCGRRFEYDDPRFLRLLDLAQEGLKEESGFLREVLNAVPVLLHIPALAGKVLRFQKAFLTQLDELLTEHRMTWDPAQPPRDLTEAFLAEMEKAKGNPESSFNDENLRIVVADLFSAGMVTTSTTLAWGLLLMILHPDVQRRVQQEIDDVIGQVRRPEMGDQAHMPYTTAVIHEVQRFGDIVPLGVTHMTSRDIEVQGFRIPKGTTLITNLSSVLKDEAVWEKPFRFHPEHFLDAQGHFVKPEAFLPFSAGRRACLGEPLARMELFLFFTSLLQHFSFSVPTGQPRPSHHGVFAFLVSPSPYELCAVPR
T2 sequence (P33261 whole entry): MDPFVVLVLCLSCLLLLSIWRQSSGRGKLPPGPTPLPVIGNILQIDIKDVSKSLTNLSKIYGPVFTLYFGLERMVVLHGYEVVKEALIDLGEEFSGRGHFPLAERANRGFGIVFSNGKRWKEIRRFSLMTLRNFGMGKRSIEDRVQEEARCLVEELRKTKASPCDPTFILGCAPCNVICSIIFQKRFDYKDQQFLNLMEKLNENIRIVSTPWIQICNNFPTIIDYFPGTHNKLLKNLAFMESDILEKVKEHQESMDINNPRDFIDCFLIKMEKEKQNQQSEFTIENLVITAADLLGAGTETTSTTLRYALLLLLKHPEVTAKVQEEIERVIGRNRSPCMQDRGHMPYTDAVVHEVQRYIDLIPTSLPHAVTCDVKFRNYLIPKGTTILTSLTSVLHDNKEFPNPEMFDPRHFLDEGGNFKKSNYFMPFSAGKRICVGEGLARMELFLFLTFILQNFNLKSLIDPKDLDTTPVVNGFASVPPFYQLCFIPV
T6 sequence (P11712 whole entry): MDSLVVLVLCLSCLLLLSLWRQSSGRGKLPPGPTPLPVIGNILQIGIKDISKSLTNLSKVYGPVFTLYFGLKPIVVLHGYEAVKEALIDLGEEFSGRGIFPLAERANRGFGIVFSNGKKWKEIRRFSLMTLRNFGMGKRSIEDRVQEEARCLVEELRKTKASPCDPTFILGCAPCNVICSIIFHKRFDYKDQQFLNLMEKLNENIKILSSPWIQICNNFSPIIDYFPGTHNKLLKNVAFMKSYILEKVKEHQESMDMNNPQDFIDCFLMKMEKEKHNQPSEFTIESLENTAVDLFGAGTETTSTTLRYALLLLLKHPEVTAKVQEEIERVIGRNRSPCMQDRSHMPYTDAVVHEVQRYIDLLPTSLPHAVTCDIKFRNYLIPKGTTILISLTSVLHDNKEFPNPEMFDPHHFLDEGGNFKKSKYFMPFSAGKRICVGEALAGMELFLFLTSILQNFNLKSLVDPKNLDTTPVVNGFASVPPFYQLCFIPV

- Inhibition of CYP2A6-catalyzed coumarin 7-hydroxylation at the highest concentration tested (CYP2A6; 100 μM, human liver microsomes): negligible inhibition
- IC50, coumarin 7-hydroxylation (CYP2A6) (CYP2A6; no preincubation): No inhibition
- IC50, coumarin 7-hydroxylation (CYP2A6) (CYP2A6; [11]): No inhibition
- Inhibition of CYP3A4-catalyzed midazolam 1'-hydroxylation at the highest concentration tested (CYP3A; 100 μM, human liver microsomes): negligible inhibition
- IC50, midazolam 1'-hydroxylation (CYP3A) (CYP3A; no preincubation): No inhibition
- IC50, midazolam 1'-hydroxylation (CYP3A) (CYP3A; [11]): No inhibition
- IC50 (CYP2C19 [1]; no preincubation): 48.1 ± 12 µM
- IC50 (CYP2C19 [1]; [11]): 57.7 ± 16.3 µM
- Ki (CYP1A2 [2]; 10-100 μM phenacetin): 2.3 ± 0.18 µM
- Inhibition type, phenacetin O-deethylation (CYP1A2) (CYP1A2 [2]; [12]): competitive
- IC50 (CYP2D6 [3]; no preincubation): 58.7 ± 7.6 µM
- IC50 (CYP2D6 [3]; [11]): 79.1 ± 7.5 µM
- Ki (CYP2C8 [4]; 0.5-5 μM amodiaquine): 102 ± 8.9 µM
- Inhibition type, amodiaquine N-deethylation (CYP2C8) (CYP2C8 [4]; [12]): competitive
- Ki (CYP2C9 [5]; 1-50 μM diclofenac): 1.6 ± 0.17 µM
- Inhibition type, diclofenac 4-hydroxylation (CYP2C9) (CYP2C9 [5]; [12]): mixed
- IC50 (CYP1A2 [6]; no preincubation): 9.4 ± 1.5 µM
- IC50 (CYP1A2 [6]; [11]): 11.8 ± 1.3 µM
- IC50 (CYP2C9 [7]; no preincubation): 4.1 ± 0.49 µM
- IC50 (CYP2C9 [7]; [11]): 4.9 ± 0.91 µM
- Ki (CYP2C19 [8]; 10-100 μM [S]-mephenytoin): 28.7 ± 3.6 µM
- Inhibition type, S-mephenytoin 4'-hydroxylation (CYP2C19) (CYP2C19 [8]): mixed
- Inhibition type, S-mephenytoin 4'-hydroxylation (CYP2C19) (CYP2C19 [8]; listed as Eupatilin): mixed-type
- Ki (CYP2D6 [9]; 0.5-5 μM bufuralol): 94.6 ± 5.8 µM
- Inhibition type, bufuralol 1'-hydroxylation (CYP2D6) (CYP2D6 [9]; [12]): competitive
- IC50 (CYP2C8 [10]): > 100 µM
SMILES: COc1ccc(-c2cc(=O)c3c(O)c(OC)c(O)cc3o2)cc1OC [eupatilin, 2-(3,4-dimethoxyphenyl)-5,7-dihydroxy-6-methoxychromen-4-one]
